Measured values published in article PMC9147192, “Small Molecule Arranged Thermal Proximity Coaggregation (smarTPCA)—A Novel Approach to Characterize Protein–Protein Interactions in Living Cells by Similar Isothermal Dose–Responses” (International Journal of Molecular Sciences, 2022).
Values joined by “and” are separate entries in the source; they are usually repeats but may differ in a detail not shown here. Equal values may be shown once.

How the values were obtained:
MAPK14 = MAPK14 (Homo sapiens, UniProt Q16539); assay: CETSA in living HL-60 cells, immunoblot; assay type: cell-based
Procedure: First, we conducted CETSA experiments according to Jafari et al.. […] Subsequent SDS-PAGE and immunoblotting were performed according to optimized conditions allowing for parallel detection of MAPK14, MAPKAPK2, MAPKAPK3, and GSK-3α (Supplementary Figure S1).
HL-60 cells (ATCC No. CCL-240) were expanded to about […] in 80 mL cell culture medium (RPMI-1640 supplemented with 10% (v/v) FBS, 1% (v/v) penicillin-streptomycin and 1% (v/v) L-glutamine solution) and divided into four aliquots (20 mL each, 25 million cells per flask). […] The same volume of DMSO was added to the remaining aliquot serving as the vehicle (DMSO) control. After incubation (1 h, 37 °C, 5% CO2, in cell culture CO2 incubator), the cell suspensions were transferred into 50 mL conical tubes, cell number and viability were determined, and after centrifugation (300 relative centrifugal force (rcf), 3 min, room temperature (r.t.)), the supernatants were completely removed and discarded. The cells were washed using 20 mL Dulbecco’s phosphate-buffered saline (PBS), respectively, by resuspension and centrifugation (300 rcf, 3 min, r.t.). After the complete removal of the supernatants, the cells were transferred into pre-weighed 2 mL Eppendorf tubes using 0.5 mL PBS (r.t.), respectively, for resuspending. After centrifugation (300 rcf, 3 min, r.t.) and removing as much as possible of the supernatants, the cell wet weights were determined.
The suspensions were shortly centrifuged (1 s or less) using a benchtop centrifuge that was equipped with an inset for PCR tubes to release trapped air and to achieve an even liquid level without pelleting the cells. The 100 µL cell suspensions were then temperature treated by a 7 min pre-incubation at r.t., a 3 min incubation at the following different temperatures in the PCR cycler (DNA Engine Tetrad 2, lid temperature 70 °C, gradient block 1: 36–55 °C, gradient block 2: 48–67 °C), and a 3 min post-incubation at r.t. in a metal heating block for uniform heat dissipation.
The cells were lysed by four freeze/thaw cycles consisting of thawing the samples (in a heat block set to 25 °C and shaking at 1250 rpm) accompanied by mixing them several times by inversion and then shock freezing them again in liquid nitrogen. The resulting lysates were kept cold (on ice or 4 °C) from then on. After centrifugation (20,000 rcf, 30 min, 4 °C) to pellet the cell debris together with precipitated and aggregated proteins, the supernatants were recovered and, after determining the total protein concentration (Pierce 660 nm Protein Assay, BSA as standard), the resulting cell extracts containing the fraction of soluble, non-denatured proteins were shock frozen in liquid nitrogen and stored at −80 °C.
For each sample set comprising either ten temperature range samples or ten compound concentration range samples, the same volume of the cell extracts containing the fraction of soluble, non-denatured proteins was used for further analysis. This volume was determined using the two lowest temperature samples (36.5 and 41.2 °C) per temperature range sample set so that they contained an average of 5 µg total protein (e.g., 2.78 µL for all temperature range samples of a sample set whose two lowest temperature samples contain an average of 1.8 mg/mL protein). For the compound concentration range experiments, all samples of a set were used for averaging.

MYLK = MYLK (Homo sapiens, UniProt Q15746); assay: TPP-CCR in living HL-60 cells
NUDT1 = NUDT1 (Homo sapiens, UniProt P36639); assay: TPP-CCR in living HL-60 cells
MAPK8 = test system: MAPK8; design: method as in PMID 23398362; settings: cited from earlier work
MAPKAPK2 = test system: MAPKAPK2; design: method as in PMID 23398362; settings: cited from earlier work
MAPKAPK3 = test system: MAPKAPK3; design: method as in PMID 23398362; settings: cited from earlier work
[1] = living HL-60 cells, […] °C, TMT-MS

Sequence of MAPK14 (Q16539 whole entry): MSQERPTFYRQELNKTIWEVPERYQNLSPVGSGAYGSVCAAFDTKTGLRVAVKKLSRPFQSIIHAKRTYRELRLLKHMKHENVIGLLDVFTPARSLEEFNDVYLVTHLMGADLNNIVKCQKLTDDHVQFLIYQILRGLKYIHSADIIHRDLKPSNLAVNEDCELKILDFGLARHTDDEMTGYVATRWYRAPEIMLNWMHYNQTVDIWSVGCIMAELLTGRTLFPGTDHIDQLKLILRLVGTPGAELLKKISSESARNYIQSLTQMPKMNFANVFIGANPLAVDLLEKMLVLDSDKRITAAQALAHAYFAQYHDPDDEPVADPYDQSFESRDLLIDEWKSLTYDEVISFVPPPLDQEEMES
Sequence of MYLK (Q16539 2-360 partner limits assumed): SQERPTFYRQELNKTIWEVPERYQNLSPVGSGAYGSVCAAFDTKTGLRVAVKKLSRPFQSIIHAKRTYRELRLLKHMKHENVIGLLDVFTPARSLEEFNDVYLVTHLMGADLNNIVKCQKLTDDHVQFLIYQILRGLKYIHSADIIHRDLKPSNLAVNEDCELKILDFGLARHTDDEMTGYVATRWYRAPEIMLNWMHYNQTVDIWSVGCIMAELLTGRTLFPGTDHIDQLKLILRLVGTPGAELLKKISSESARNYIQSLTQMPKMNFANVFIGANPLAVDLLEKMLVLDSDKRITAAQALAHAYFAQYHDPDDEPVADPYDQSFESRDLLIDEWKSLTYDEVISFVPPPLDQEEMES
Sequence of MYLK (Q15746 whole entry): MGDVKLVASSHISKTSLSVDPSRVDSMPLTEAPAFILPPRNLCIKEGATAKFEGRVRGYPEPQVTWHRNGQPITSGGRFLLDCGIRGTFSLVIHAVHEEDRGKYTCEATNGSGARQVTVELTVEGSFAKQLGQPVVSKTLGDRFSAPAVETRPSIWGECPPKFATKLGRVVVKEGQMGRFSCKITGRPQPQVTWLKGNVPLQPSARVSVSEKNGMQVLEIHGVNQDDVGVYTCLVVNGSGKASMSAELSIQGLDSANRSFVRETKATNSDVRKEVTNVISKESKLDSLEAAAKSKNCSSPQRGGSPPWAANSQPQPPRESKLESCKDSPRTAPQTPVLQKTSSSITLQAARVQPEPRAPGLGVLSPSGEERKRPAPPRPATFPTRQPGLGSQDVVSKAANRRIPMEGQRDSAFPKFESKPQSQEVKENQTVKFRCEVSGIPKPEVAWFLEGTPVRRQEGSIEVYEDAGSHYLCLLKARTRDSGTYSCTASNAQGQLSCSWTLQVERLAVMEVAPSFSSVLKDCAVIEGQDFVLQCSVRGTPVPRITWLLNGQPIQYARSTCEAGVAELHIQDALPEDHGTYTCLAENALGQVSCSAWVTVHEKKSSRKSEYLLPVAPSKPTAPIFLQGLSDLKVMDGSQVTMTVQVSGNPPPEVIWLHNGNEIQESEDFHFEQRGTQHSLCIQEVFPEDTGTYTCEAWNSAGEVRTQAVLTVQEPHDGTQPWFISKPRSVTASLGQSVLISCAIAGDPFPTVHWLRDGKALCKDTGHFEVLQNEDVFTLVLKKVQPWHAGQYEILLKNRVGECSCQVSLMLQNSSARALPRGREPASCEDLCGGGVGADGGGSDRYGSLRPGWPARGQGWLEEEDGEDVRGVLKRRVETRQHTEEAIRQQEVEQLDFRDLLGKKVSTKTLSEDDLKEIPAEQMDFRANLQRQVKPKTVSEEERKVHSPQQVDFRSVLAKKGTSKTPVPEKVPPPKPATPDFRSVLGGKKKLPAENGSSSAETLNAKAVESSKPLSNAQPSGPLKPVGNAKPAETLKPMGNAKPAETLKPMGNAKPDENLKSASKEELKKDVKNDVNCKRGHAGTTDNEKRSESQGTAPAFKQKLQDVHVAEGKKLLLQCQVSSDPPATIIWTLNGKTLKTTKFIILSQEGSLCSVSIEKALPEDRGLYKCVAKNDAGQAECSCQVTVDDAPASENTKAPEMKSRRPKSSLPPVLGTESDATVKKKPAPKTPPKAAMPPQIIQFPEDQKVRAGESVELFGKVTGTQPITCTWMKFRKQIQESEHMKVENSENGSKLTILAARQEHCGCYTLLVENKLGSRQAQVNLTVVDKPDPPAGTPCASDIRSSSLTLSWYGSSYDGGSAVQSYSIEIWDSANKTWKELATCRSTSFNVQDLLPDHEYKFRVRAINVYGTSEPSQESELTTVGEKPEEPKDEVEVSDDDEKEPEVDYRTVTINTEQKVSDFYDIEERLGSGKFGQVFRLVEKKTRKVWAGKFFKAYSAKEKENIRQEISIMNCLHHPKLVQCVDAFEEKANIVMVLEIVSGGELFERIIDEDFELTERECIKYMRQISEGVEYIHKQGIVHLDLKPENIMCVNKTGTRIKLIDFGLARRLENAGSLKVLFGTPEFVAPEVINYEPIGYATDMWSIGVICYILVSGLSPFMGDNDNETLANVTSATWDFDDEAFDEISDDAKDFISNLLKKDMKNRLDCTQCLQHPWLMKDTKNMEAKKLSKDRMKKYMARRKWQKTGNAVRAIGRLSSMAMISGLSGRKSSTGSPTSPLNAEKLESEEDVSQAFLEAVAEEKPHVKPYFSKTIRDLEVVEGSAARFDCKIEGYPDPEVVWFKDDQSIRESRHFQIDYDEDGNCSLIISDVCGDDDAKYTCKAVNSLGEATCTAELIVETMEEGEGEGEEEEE

Compound	ΔTm at 20 µM (MAPK14; HL-60, living HL-60 cells, 20 µM inhibitor, read-out: ΔTm to DMSO (MAPK14)) [°C]	Tm (MAPK14; MAPK14, living cells) [°C]	ΔTm to DMSO (MAPK14; MAPK14, living cells) [°C]	Tm (MAPK14) (MAPK14; living HL-60 cells, 20 µM inhibitor)	ΔTm to DMSO (MAPK14) (MAPK14; living HL-60 cells, 20 µM inhibitor, 20 µM) [°C]	EC50 (MYLK) [nM]	Hill slope (MYLK) (MYLK; [1])	EC50 (NUDT1) [nM]	Hill slope (NUDT1) (NUDT1; [1])	activity against MAPK8 (MAPK8)	activity against MAPKAPK2 (MAPKAPK2)	activity against MAPKAPK3 (MAPKAPK3)
Cn1c(NC[C@@H](N)Cc2ccccc2)nc(-c2ccncc2)c(-c2ccc3ccccc3c2)c1=O [AMG-548]	14.8	60.58	14.76	60.6 ± 0.5 °C and 60.58 °C	14.76	6.03	0.44	2290	0.77	–	–	–
C[S+]([O-])c1ccc(-c2nc(-c3ccncc3)c(-c3ccc(F)cc3)[nH]2)cc1 (stereo not drawn) [SB203580]	–	–	–	–	–	–	–	–	–	inactivity	inactivity	inactivity
